pIC50: −log10 of the molar value. Blank lines part the entries; values can stand above or below the compound they belong to. Active and inactive are the calls of the source. The calls are words filed in the database; no cut-off is given here.
What was measured:
Coagulation factor X = Coagulation factor X (Homo sapiens, UniProt P00742); test: Inhibition of human factor Xa using S-2222 as substrate preincubated for 30 mins followed by substrate addition and measured for 20 mins
Rattus norvegicus [1] = test: Antithrombotic activity in rat model of FeCl3-induced venous thrombosis assessed as reduction thrombus weight at 5 mg/kg, po dosed 60 mins before thrombus formation relative to untreated control; type: functional; parameters: scale not given: the % may be the effect or the level left
[2] = AUC (0 to infinity) in Sprague-Dawley rat at 1 mg/kg, iv by LC-MS analysis; type: ADME, organism-based; parameters: dose 1 mg/kg, time infinity, route intravenous; details: in vivo
Rattus norvegicus [3] = test: Antithrombotic activity in rat model of arteriovenous shunt thrombosis assessed as reduction thrombus weight at 5 mg/kg, po dosed 90 mins before shunt was opened for 15 mins relative to untreated control; type: functional; parameters: scale not given: the % may be the effect or the level left
Rattus norvegicus [4] = test: Antithrombotic activity in rat model of FeCl3-induced venous thrombosis assessed as reduction thrombus weight at 10 mg/kg, po dosed 60 mins before thrombus formation relative to untreated control; type: functional; parameters: scale not given: the % may be the effect or the level left
H9c2 = test: Cytoprotective activity against hypoxia/reoxygenation-induced toxicity in rat H9c2 cells assessed as increase in cell viability at 1 to 10 uM by MTT assay; type: functional, cell-based
[5] = Tmax in Sprague-Dawley rat at 3 mg/kg, po by LC-MS analysis; type: ADME, organism-based; details: in vivo
[6] = Oral bioavailability in Sprague-Dawley rat at 3 mg/kg by LC-MS analysis; type: ADME, organism-based; details: in vivo
[7] = Elimination half life in Sprague-Dawley rat at 3 mg/kg, po by LC-MS analysis; type: ADME, organism-based; details: in vivo, read-out: beta t1/2 (converted)
[8] = AUC (0 to infinity) in Sprague-Dawley rat at 3 mg/kg, po by LC-MS analysis; type: ADME, organism-based; parameters: dose 3 mg/kg, route oral, time infinity; details: in vivo
[9] = Plasma clearance in Sprague-Dawley rat at 1 mg/kg, iv by LC-MS analysis; type: ADME, organism-based; details: in vivo
Plasma [10] = test: Anticoagulant activity in citrated rabbit plasma assessed as concentration required to double prothrombin time after 10 mins by coagulometric analysis; type: functional, Oryctolagus cuniculus
Rattus norvegicus [11] = test: Antithrombotic activity in rat model of arteriovenous shunt thrombosis assessed as reduction thrombus weight at 10 mg/kg, po dosed 90 mins before shunt was opened for 15 mins relative to untreated control; type: functional; parameters: scale not given: the % may be the effect or the level left
Plasma [12] = test: Anticoagulant activity in citrated rabbit plasma assessed as concentration required to double activated partial thromboplastin time after 10 mins by coagulometric analysis; type: functional, Oryctolagus cuniculus
[13] = Toxicity in rat assessed as prolongation of tail bleeding dosed orally 60 mins before tails of anesthetized rat were transected and measured over 30 mins; type: organism-based; details: in vivo, po, 0.5 h
Rattus norvegicus [14] = test: Antithrombotic activity in rat model of FeCl3-induced venous thrombosis assessed as reduction thrombus weight at 1 mg/kg, po dosed 60 mins before thrombus formation relative to untreated control; type: functional; parameters: scale not given: the % may be the effect or the level left
Prothrombin = Prothrombin (Homo sapiens, UniProt P00734); test: Inhibition of human recombinant thrombin expressed in HEK293 cells using S-2238 as substrate preincubated for 30 mins followed by substrate addition and measured for 20 mins; type: single protein
[15] = Volume of distribution at steady state in Sprague-Dawley rat at 1 mg/kg, iv by LC-MS analysis; type: ADME, organism-based; details: in vivo
Rattus norvegicus [16] = test: Antithrombotic activity in rat model of arteriovenous shunt thrombosis assessed as reduction thrombus weight at 1 mg/kg, po dosed 90 mins before shunt was opened for 15 mins relative to untreated control; type: functional; parameters: scale not given: the % may be the effect or the level left
[17] = Toxicity in rat assessed as prolongation of tail bleeding at 1 to 10 mg/kg, po dosed 60 mins before tails of anesthetized rat were transected and measured over 30 mins; type: organism-based; details: in vivo, 0.5 h
[18] = Cmax in Sprague-Dawley rat at 3 mg/kg, po by LC-MS analysis; type: ADME, organism-based; parameters: dose 3 mg/kg, route oral; details: in vivo
[19] = Elimination half life in Sprague-Dawley rat at 1 mg/kg, iv by LC-MS analysis; type: ADME, organism-based; details: in vivo
Coagulation factor VII = target: T1, Coagulation factor VII (Homo sapiens, UniProt P08709); test: Inhibition of human factor 7a preincubated for 30 mins followed by substrate addition and measured for 20 mins
T1 sequence (P08709 whole entry): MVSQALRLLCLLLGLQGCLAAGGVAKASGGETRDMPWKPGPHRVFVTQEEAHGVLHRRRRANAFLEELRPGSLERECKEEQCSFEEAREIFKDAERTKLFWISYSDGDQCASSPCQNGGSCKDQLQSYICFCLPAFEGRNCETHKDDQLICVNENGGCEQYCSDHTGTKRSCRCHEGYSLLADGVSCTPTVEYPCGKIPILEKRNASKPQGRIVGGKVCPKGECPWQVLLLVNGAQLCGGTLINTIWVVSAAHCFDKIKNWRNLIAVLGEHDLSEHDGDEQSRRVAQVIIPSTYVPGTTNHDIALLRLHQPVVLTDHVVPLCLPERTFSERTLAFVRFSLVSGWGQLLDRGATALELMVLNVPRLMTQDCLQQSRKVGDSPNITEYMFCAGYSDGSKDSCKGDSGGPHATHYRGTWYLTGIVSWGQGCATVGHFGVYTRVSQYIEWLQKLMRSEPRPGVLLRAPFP

Homo sapiens [20] = species: Homo sapiens; test: Selectivity ratio of IC50 for human recombinant thrombin expressed in HEK293 cells to IC50 for human factor Xa; type: cell-based
Homo sapiens [21] = species: Homo sapiens; test: Selectivity ratio of IC50 for human trypsin to IC50 for human factor Xa
Coagulation factor IX = Coagulation factor IX (Homo sapiens, UniProt P00740); test: Inhibition of human factor 9a preincubated for 30 mins followed by substrate addition and measured for 20 mins
Chain of Coagulation factor IX (P00740 47-191 limits assumed): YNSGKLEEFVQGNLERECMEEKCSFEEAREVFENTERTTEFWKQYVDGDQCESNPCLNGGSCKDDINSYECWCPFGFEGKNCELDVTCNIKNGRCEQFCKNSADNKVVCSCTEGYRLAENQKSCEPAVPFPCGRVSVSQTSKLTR
Chain of Coagulation factor IX (P00740 227-461 limits assumed): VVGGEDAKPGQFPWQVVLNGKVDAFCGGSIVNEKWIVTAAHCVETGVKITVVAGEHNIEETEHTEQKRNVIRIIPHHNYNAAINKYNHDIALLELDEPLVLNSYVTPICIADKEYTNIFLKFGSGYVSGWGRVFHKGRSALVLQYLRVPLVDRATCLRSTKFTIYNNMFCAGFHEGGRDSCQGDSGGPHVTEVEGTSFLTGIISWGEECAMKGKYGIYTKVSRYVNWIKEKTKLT

Homo sapiens [22] = species: Homo sapiens; test: Selectivity ratio of IC50 for human factor 7a to IC50 for human factor Xa
Trypsin = Trypsin (Homo sapiens, UniProt P07477+P07478+P35030); test: Inhibition of human trypsin preincubated for 30 mins followed by substrate addition and measured for 20 mins; type: protein assay
Homo sapiens [23] = species: Homo sapiens; test: Selectivity ratio of IC50 for human factor 9a to IC50 for human factor Xa
Rattus norvegicus [24] = test: Antithrombotic activity in rat model of FeCl3-induced venous thrombosis dosed orally 60 mins before thrombus formation; type: functional, organism-based
Rattus norvegicus [25] = test: Antithrombotic activity in rat model of arteriovenous shunt thrombosis dosed orally 90 mins before shunt was opened for 15 mins; type: functional, organism-based

Chain of Coagulation factor X (P00742 41-179 limits assumed): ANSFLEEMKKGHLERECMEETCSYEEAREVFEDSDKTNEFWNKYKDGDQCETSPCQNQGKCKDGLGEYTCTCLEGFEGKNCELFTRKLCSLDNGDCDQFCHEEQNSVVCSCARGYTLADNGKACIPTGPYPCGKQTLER
Chain of Coagulation factor X (P00742 235-488 limits assumed): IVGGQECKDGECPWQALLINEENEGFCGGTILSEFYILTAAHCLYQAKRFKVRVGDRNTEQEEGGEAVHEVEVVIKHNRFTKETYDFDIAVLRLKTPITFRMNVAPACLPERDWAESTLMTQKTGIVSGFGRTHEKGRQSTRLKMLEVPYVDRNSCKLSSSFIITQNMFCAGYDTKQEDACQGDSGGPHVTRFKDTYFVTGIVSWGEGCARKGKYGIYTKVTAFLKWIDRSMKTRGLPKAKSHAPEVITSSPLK

pIC50 (Coagulation factor X): 6.57
Compound: COc1ccc(NC(=O)c2ccc(N3CCCCC3=O)cc2)c(C(=O)Nc2ccc(C(C)(C)C)cc2)c1

pIC50 (Coagulation factor X): 6.50
Compound: COc1ccc(NC(=O)c2nc3c(s2)CN(C)CC3)c(C(=O)Nc2cccc(Cl)c2)c1

AUC [2]: 1832 ng·h/mL
Tmax [5]: 2.6 h
F [6]: 30.2%
half-life [7]: 516 min
AUC [8]: 571 ng·h/mL
CL [9]: 1.36 L/h/kg
pIC50 (Prothrombin): 4.74
Vdss [15]: 0.191 L/kg
Cmax [18]: 146 ng/mL
beta t1/2 [19]: 7.8 h
Compound: COc1ccc(NC(=O)c2ccc(C(=N)N(C)C)cc2)c(C(=O)Nc2ccc(Cl)cn2)c1 [BETRIXABAN]
Activity (Rattus norvegicus [1]): 38%
Activity (Rattus norvegicus [3]): 43%
Activity (Rattus norvegicus [4]): 59%
Activity (H9c2): inactive
2PT (Plasma [10]): 2.4 µM
Activity (Rattus norvegicus [11]): 61%
2aPTT (Plasma [12]): 1.1 µM
Activity [13]: Dose-dependent effect
Activity (Rattus norvegicus [14]): 27%
Activity (Rattus norvegicus [16]): 24%
Activity [17]: Toxic

pIC50 (Coagulation factor X): 6.01
Compound: COc1cccc(NC(=O)c2cc(OC)ccc2NC(=O)c2nc3c(s2)CN(C)CC3)c1

pIC50 (Coagulation factor X): 5.50
Compound: COc1ccc(NC(=O)c2ccc(N3CCCCC3=O)cc2)c(C(=O)Nc2ccccc2OC)c1

pIC50 (Coagulation factor X): 5.81
Compound: COc1ccc(NC(=O)c2ccc(N3CCOCC3=O)cc2)c(C(=O)Nc2ccccc2OC)c1

pIC50 (Coagulation factor X): 7.35
Compound: COc1ccc(NC(=O)c2ccc(N3CCCCC3=O)cc2)c(C(=O)Nc2cccc(F)c2)c1

pIC50 (Coagulation factor VII): 4.96
Ratio IC50 (Homo sapiens [21]): > 1000
pIC50 (Coagulation factor IX): 4.38
pIC50 (Prothrombin): 4.49
pIC50 (Coagulation factor X): 8.00
Ratio IC50 (Homo sapiens [22]): > 1000
pIC50 (Trypsin): 4.27
Ratio IC50 (Homo sapiens [23]): > 1000
Compound: COc1ccc(NC(=O)c2nc3c(s2)CN(C)CC3)c(C(=O)Nc2ccc(C)cn2)c1
Ratio IC50 (Homo sapiens [20]): > 1000
2PT (Plasma [10]): 5.6 µM
2aPTT (Plasma [12]): 2.2 µM

pIC50 (Coagulation factor X): 5.86
Compound: COc1ccc(NC(=O)c2nc3c(s2)CN(C)CC3)c(C(=O)Nc2ccc(Cl)s2)c1

AUC [2]: 2258 ng·h/mL
pIC50 (Coagulation factor VII): 4.92
Ratio IC50 (Homo sapiens [21]): > 1000
Tmax [5]: 3.2 h
F [6]: 51.3%
half-life [7]: 576 min
AUC [8]: 1160 ng·h/mL
CL [9]: 0.92 L/h/kg
pIC50 (Coagulation factor IX): 4.44
pIC50 (Prothrombin): 5.38
pIC50 (Coagulation factor X): 8.46
Ratio IC50 (Homo sapiens [22]): > 1000
pIC50 (Trypsin): 5.04
Vdss [15]: 0.201 L/kg
Cmax [18]: 221 ng/mL
beta t1/2 [19]: 8.8 h
Ratio IC50 (Homo sapiens [23]): > 1000
Compound: COc1ccc(NC(=O)c2nc3c(s2)CN(C)CC3)c(C(=O)Nc2ccc(Cl)cn2)c1
Activity (Rattus norvegicus [1]): 36%
Activity (Rattus norvegicus [3]): 50%
Activity (Rattus norvegicus [4]): 54%
Activity (H9c2): Active
Ratio IC50 (Homo sapiens [20]): > 1000
2PT (Plasma [10]): 0.8 µM
Activity (Rattus norvegicus [11]): 67%
2aPTT (Plasma [12]): 0.5 µM
Activity (Rattus norvegicus [24]): Dose-dependent effect
Activity (Rattus norvegicus [25]): Dose-dependent effect
Activity [13]: Dose-dependent effect
Activity (Rattus norvegicus [14]): 23%
Activity (Rattus norvegicus [16]): 30%
Activity [17]: Toxic

pIC50 (Coagulation factor X): 5.68
Compound: COc1ccc(NC(=O)c2ccc(N3CCOCC3=O)cc2)c(C(=O)Nc2ccc(C(C)(C)C)cc2)c1

pIC50 (Coagulation factor X): 7.74
Compound: COc1ccc(NC(=O)c2ccc(N3CCOCC3=O)cc2)c(C(=O)Nc2ccc(Cl)cc2)c1

pIC50 (Coagulation factor X): 7.62
Compound: COc1ccc(NC(=O)c2nc3c(s2)CN(C)CC3)c(C(=O)Nc2ccc(F)cn2)c1

pIC50 (Coagulation factor VII): 5.33
Ratio IC50 (Homo sapiens [21]): > 1000
pIC50 (Coagulation factor IX): 4.59
pIC50 (Prothrombin): 5.15
pIC50 (Coagulation factor X): 8.32
Ratio IC50 (Homo sapiens [22]): > 1000
pIC50 (Trypsin): 4.74
Ratio IC50 (Homo sapiens [23]): > 1000
Compound: COc1ccc(NC(=O)c2nc3c(s2)CN(C)CC3)c(C(=O)Nc2ccc(Cl)cc2)c1
Ratio IC50 (Homo sapiens [20]): > 1000
2PT (Plasma [10]): 1.3 µM
2aPTT (Plasma [12]): 0.8 µM

pIC50 (Coagulation factor X): 5.97
Compound: COc1ccc(NC(=O)c2ccc(N3CCCCC3=O)cc2)c(C(=O)Nc2ccc(F)cc2)c1

pIC50 (Coagulation factor X): 6.29
Compound: COc1ccc(NC(=O)c2cc(OC)ccc2NC(=O)c2ccc(N3CCCCC3=O)cc2)cc1

pIC50 (Coagulation factor X): 6.63
Compound: COc1ccc(NC(=O)c2cc(OC)ccc2NC(=O)c2nc3c(s2)CN(C)CC3)cc1

pIC50 (Coagulation factor X): 7.52
Compound: COc1ccc(NC(=O)c2nc3c(s2)CN(C)CC3)c(C(=O)Nc2ccc(C)cc2)c1

pIC50 (Coagulation factor X): 7.70
Compound: C#Cc1ccc(NC(=O)c2cc(OC)ccc2NC(=O)c2nc3c(s2)CN(C)CC3)cc1

pIC50 (Coagulation factor X): 6.61
Compound: COc1ccc(NC(=O)c2ccc(N3CCCCC3=O)cc2)c(C(=O)Nc2ccc(Cl)cc2)c1

pIC50 (Coagulation factor X): 6.19
Compound: COc1ccc(NC(=O)c2ccc(N3CCCC3=O)cc2)c(C(=O)Nc2ccc(Cl)cc2)c1

Compound: O=C(NC[C@H]1CN(c2ccc(N3CCOCC3=O)cc2)C(=O)O1)c1ccc(Cl)s1
Activity (H9c2): Active

pIC50 (Coagulation factor X): 7.11
Compound: COc1ccc(NC(=O)c2cc(OC)ccc2NC(=O)c2ccc(N3CCOCC3=O)cc2)cc1

pIC50 (Coagulation factor X): 6.75
Compound: COc1ccc(NC(=O)c2ccc(-n3ccccc3=O)cc2)c(C(=O)Nc2ccc(Cl)cc2)c1
